Data reported in ChEMBL document CHEMBL1201862, “PubChem BioAssay data set” (2004).
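Interpolation was linear, between the two tested concentrations surrounding the appropriate level; five concentrations were tested over 48 hours in 96-well plates. The concentration for 50% growth inhibition is given as GI50.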 The source made the active and inactive calls. Cut-off read from the data, not from the text of the source: active = GI50 up to about 1.1 µM and inactive = higher.

Experiments:
Assay in all cases: NCI-60 cell line screen, 48 h
MOLT-4 = tested on: MOLT-4
SW-620 = tested on: SW-620
IGROV-1 = tested on: IGROV-1
NCI-H226 = tested on: NCI-H226
SK-OV-3 = tested on: SK-OV-3
MDA-N = tested on: MDA-N
ACHN = tested on: ACHN
SK-MEL-28 = tested on: SK-MEL-28
SK-MEL-2 = tested on: SK-MEL-2
SF-295 = tested on: SF-295
KM12 = tested on: KM12
786-0 = tested on: 786-0
COLO 205 = tested on: COLO 205
SN12C = tested on: SN12C
SK-MEL-5 = tested on: SK-MEL-5
SF-539 = tested on: SF-539
CAKI-1 = tested on: CAKI-1
HL-60 = tested on: HL-60
UACC-62 = tested on: UACC-62
HT-29 = tested on: HT-29

Measured: GI50

CN1CCc2ccccc2C1Cc1ccccc1NC(=O)c1sc2ccccc2c1Cl (stereo unspecified)
inactive: MOLT-4 > 100 µM | SW-620 > 100 µM | IGROV-1 > 100 µM | NCI-H226 > 100 µM | SK-OV-3 > 100 µM | MDA-N > 100 µM | ACHN > 100 µM | SK-MEL-28 > 100 µM | SK-MEL-2 > 100 µM | SF-295 > 100 µM | KM12 > 100 µM | 786-0 > 100 µM | COLO 205 > 100 µM | SN12C > 100 µM | SK-MEL-5 > 100 µM | SF-539 > 100 µM | CAKI-1 > 100 µM | HL-60 42.3 µM | UACC-62 > 100 µM

NC(=O)C(N)Cc1ccc(O)cn1 (stereo unspecified)
inactive: MOLT-4 > 100 µM | HT-29 > 100 µM | SW-620 > 100 µM | IGROV-1 > 100 µM | NCI-H226 > 100 µM | MDA-N > 100 µM | ACHN > 100 µM | SK-MEL-28 > 100 µM | SF-295 > 100 µM | KM12 > 100 µM | 786-0 > 100 µM | COLO 205 > 100 µM | SN12C > 100 µM | SK-MEL-5 > 100 µM | SF-539 > 100 µM | CAKI-1 > 100 µM | HL-60 > 100 µM

O=C(O)c1c2c(cc3c1CC1(Cc4ccccc4C1)C3)CCC2
inactive: MOLT-4 82.8 µM | HT-29 73.8 µM | SW-620 > 100 µM | IGROV-1 59.4 µM | NCI-H226 > 100 µM | SK-OV-3 > 100 µM | MDA-N > 100 µM | ACHN 32.7 µM | SK-MEL-28 > 100 µM | SF-295 > 100 µM | KM12 59.3 µM | 786-0 80 µM | COLO 205 57.7 µM | SN12C 67.6 µM | SK-MEL-5 59.7 µM | SF-539 > 100 µM | CAKI-1 53.2 µM | HL-60 41.4 µM | UACC-62 > 100 µM

NNc1nc2ccccc2c(=O)n1NC(=O)C(=O)Nc1cccc(C(F)(F)F)c1
inactive: MOLT-4 > 100 µM | HT-29 > 100 µM | SW-620 > 100 µM | IGROV-1 47.6 µM | NCI-H226 > 100 µM | SK-OV-3 > 100 µM | MDA-N > 100 µM | ACHN > 100 µM | SK-MEL-28 > 100 µM | SK-MEL-2 > 100 µM | SF-295 > 100 µM | KM12 > 100 µM | 786-0 > 100 µM | SN12C > 100 µM | SK-MEL-5 > 100 µM | SF-539 > 100 µM | CAKI-1 > 100 µM | HL-60 > 100 µM | UACC-62 > 100 µM

O=C(Cc1nc2ccc(C(=O)c3ccccc3)cc2nc1O)C(=O)Nc1ccc(Br)cc1
inactive: HT-29 > 100 µM | SW-620 > 100 µM | IGROV-1 > 100 µM | NCI-H226 78.2 µM | SK-OV-3 > 100 µM | MDA-N 39.7 µM | ACHN 71.8 µM | SK-MEL-28 > 100 µM | SK-MEL-2 > 100 µM | SF-295 > 100 µM | KM12 34.8 µM | 786-0 > 100 µM | SN12C > 100 µM | SK-MEL-5 > 100 µM | SF-539 > 100 µM | CAKI-1 40.1 µM | HL-60 69.7 µM | UACC-62 > 100 µM

COC(=O)C(COC(=O)/C=C/c1ccc(OC(C)=O)c(OC(C)=O)c1)NC(=O)/C=C/c1ccc(OC(C)=O)c(OC(C)=O)c1 (stereo unspecified)
inactive: MOLT-4 38.3 µM | HT-29 19.8 µM | SW-620 33.4 µM | IGROV-1 43.6 µM | NCI-H226 36.2 µM | SK-OV-3 67 µM | MDA-N 20.5 µM | ACHN 25.6 µM | SK-MEL-28 26.2 µM | SK-MEL-2 18.3 µM | KM12 17.6 µM | 786-0 17.9 µM | COLO 205 20.7 µM | SN12C 19.6 µM | SK-MEL-5 14.7 µM | SF-539 31.8 µM | CAKI-1 18.5 µM | HL-60 25.2 µM | UACC-62 15 µM
